Data from patent publication US9340590B2 (priority 2011, dated 2016).
Positions of bridges follow the written chain, without caps; N, C: chain ends. Non-standard residues stand in square brackets, D forms with d. Residues, ends and D or L forms follow the SMILES beside them. *: point of attachment. DOTA = O=C(O)CN1CCN(CC(=O)O)CCN(CC(=O)*)CCN(CC(=O)O)CC1; hCit = NC(=O)NCCCC[C@H](N)C(=O)O; 3Pal = N[C@@H](Cc1cccnc1)C(=O)O; Abu = CC[C@H](N)C(=O)O

Key:
hNav1.7 = hNav1.7 (Homo sapiens, UniProt Q15858); test: cell-based; settings: Nav1.7 Use IC50
Sequence of hNav1.7 (Q15858 whole entry, looked up): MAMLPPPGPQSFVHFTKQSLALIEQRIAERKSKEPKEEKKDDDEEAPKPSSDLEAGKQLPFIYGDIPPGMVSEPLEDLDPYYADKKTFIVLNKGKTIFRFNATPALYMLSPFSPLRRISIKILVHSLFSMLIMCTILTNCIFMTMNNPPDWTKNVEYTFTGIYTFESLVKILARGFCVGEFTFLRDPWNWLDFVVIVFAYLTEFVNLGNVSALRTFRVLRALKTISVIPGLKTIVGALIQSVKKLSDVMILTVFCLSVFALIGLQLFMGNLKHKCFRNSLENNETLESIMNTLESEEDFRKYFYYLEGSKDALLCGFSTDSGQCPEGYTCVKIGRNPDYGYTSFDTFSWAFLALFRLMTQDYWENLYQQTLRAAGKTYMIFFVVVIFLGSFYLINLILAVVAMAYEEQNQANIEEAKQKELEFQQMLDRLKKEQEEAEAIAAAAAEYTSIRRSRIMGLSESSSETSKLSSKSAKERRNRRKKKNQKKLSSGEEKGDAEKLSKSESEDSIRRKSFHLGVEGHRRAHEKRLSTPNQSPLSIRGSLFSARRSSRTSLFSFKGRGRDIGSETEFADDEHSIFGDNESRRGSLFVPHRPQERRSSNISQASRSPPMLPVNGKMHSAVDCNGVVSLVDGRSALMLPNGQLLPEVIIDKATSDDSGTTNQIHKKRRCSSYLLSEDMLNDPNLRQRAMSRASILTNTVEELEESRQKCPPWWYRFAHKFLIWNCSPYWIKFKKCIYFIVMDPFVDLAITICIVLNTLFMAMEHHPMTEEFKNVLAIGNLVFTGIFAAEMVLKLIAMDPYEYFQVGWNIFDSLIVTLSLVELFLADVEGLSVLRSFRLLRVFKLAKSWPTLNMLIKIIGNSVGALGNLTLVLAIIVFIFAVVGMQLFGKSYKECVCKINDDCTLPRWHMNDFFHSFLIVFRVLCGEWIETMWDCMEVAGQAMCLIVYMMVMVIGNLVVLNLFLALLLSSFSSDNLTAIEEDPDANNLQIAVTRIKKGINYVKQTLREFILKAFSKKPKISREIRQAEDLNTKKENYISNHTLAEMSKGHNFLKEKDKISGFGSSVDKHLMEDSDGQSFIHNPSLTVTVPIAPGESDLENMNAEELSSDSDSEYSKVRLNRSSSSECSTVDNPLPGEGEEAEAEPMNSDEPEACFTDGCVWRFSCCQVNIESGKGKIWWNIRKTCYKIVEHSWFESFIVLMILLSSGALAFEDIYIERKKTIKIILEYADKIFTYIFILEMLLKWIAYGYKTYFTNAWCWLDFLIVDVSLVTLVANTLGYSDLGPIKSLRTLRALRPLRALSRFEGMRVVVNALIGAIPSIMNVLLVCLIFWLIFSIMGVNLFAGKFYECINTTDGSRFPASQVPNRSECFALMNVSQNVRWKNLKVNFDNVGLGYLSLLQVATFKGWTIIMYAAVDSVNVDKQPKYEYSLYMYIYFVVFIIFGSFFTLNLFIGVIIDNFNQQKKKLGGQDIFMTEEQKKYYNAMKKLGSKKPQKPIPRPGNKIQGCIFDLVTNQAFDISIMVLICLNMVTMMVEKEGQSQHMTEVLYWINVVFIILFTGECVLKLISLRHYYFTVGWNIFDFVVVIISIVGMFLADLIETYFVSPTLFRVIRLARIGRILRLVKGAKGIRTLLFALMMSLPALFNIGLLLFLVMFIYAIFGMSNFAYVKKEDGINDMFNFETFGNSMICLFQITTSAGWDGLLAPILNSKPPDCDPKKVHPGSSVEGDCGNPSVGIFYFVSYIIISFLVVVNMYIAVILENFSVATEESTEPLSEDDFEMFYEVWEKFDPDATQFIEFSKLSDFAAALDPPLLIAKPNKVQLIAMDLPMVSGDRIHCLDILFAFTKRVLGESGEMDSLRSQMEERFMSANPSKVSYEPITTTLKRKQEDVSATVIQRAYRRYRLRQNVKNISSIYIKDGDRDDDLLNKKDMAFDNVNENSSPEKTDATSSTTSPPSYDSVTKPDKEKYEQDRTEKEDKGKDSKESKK

hNav1.5 = hNav1.5 (Homo sapiens, UniProt Q14524); test: cell-based
Sequence of hNav1.5 (Q14524 whole entry, looked up): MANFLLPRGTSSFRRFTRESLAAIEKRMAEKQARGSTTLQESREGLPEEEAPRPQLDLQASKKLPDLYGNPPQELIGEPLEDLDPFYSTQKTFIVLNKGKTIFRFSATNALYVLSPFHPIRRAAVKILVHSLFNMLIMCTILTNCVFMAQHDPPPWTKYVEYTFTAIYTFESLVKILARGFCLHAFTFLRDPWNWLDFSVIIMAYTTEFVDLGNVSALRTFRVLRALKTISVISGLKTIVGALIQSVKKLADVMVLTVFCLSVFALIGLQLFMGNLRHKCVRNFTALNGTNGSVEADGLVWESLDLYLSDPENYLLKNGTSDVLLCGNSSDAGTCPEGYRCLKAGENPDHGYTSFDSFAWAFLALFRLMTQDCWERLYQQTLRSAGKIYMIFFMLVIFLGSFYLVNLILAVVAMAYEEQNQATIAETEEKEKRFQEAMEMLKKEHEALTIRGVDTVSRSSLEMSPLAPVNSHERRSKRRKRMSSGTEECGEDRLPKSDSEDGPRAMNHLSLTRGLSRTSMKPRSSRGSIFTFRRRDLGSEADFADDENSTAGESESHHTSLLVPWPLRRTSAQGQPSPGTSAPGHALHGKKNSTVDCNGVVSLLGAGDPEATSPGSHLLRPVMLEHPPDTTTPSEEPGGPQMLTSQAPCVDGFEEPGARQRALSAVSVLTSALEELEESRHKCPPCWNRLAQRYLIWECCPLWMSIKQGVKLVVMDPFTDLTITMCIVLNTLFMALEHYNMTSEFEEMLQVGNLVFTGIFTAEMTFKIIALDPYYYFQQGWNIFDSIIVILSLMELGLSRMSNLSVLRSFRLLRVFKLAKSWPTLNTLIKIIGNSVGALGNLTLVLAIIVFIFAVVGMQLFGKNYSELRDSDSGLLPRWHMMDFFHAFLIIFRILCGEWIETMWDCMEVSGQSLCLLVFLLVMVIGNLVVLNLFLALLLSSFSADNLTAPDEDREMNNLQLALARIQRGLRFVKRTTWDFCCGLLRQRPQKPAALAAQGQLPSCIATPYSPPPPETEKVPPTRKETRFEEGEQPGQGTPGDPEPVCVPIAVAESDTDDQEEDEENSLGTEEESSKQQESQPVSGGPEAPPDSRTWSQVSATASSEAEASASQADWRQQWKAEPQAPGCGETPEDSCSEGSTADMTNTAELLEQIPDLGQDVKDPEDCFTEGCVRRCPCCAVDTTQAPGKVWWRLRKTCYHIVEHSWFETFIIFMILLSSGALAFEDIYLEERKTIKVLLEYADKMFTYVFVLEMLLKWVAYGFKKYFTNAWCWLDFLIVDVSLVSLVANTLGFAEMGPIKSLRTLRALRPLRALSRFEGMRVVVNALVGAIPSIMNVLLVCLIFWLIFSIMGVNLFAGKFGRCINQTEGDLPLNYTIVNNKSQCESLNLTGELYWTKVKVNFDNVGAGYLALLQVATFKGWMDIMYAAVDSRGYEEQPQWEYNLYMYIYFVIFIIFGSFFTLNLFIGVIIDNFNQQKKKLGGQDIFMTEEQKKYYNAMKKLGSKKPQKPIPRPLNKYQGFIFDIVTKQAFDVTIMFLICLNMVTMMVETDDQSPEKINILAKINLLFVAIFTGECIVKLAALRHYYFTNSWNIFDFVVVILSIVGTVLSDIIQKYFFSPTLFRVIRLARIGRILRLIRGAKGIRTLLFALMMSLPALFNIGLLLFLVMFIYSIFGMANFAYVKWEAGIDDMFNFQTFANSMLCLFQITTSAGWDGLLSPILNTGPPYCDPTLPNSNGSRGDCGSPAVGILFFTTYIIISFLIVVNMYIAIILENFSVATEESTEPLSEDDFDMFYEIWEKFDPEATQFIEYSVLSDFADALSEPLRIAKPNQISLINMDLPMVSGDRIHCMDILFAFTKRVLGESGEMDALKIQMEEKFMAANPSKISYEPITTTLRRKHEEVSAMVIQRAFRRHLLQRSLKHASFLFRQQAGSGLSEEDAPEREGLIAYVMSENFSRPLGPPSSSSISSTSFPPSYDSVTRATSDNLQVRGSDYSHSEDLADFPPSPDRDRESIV

Compound | IC50 (hNav1.7) [nM] | IC50 (hNav1.5) [nM]
CC[C@@H]1NC(=O)[C@H](CC(=O)O)NC(=O)[C@@H]2CCCN2C(=O)[C@H]([C@@H](C)CC)NC(=O)[C@@H]2CSSC[C@@H]3NC(=O)[C@H](C(C)C)NC(=O)[C@H](CC(C)C)NC(=O)[C@H](CC(N)=O)NC(=O)[C@@H]4CCCN4C(=O)[C@H](CCCNC(=N)N)NC(=O)[C@H](CSSC[C@H](NC(=O)[C@@H](N)CC(=O)O)C(=O)N[C@@H](CC(C)C)C(=O)NCC(=O)N[C@@H](C)C(=O)N[C@@H](CC(C)C)C(=O)N[C@@H](CCCNC(=N)N)C(=O)N[C@@H](CCCCN)C(=O)N2)NC(=O)[C@H](CSSC[C@@H](C(=O)N[C@@H](CCCCN)C(=O)N[C@@H](Cc2ccc(O)cc2)C(=O)N[C@H](C(=O)N[C@@H](Cc2ccccc2)C(N)=O)C(C)C)NC(=O)[C@H](Cc2c[nH]c4ccccc24)NC(=O)[C@H](CCCNC(=N)N)NC(=O)[C@H](Cc2c[nH]cn2)NC(=O)[C@H](CC(C)C)NC(=O)[C@H](CCCNC(=N)N)NC(=O)[C@H](CO)NC3=O)NC(=O)[C@H](CCCCN)NC(=O)[C@H](CC(=O)O)NC1=O (H-DCLGALRKCIPD[Abu]DKCCRPNLVCSRLHRWCKYVF-NH2; disulfide 2-17, 9-23, 16-30) | 8.7 | > 10000
CC[C@H](C)[C@@H]1NC(=O)[C@@H]2CSSC[C@@H]3NC(=O)[C@H](C(C)C)NC(=O)[C@H](CC(C)C)NC(=O)[C@H](CC(N)=O)NC(=O)[C@@H]4CCCN4C(=O)[C@H](CCCNC(=N)N)NC(=O)[C@H](CSSC[C@H](NC(=O)[C@@H](N)CC(=O)O)C(=O)N[C@@H](CC(C)C)C(=O)NCC(=O)N[C@@H](C)C(=O)N[C@@H](CCSC)C(=O)N[C@@H](CCCNC(=N)N)C(=O)N[C@@H](CCCCN)C(=O)N2)NC(=O)[C@H](CSSC[C@@H](C(=O)N[C@@H](CCCCN)C(=O)N[C@@H](Cc2ccc(O)cc2)C(=O)N[C@H](C(=O)N[C@@H](Cc2ccccc2)C(N)=O)C(C)C)NC(=O)[C@H](Cc2c[nH]c4ccccc24)NC(=O)[C@H](CCCCNC(N)=O)NC(=O)[C@H](Cc2c[nH]cn2)NC(=O)[C@H]([C@@H](C)O)NC(=O)[C@H](CCCNC(=N)N)NC(=O)[C@H](CO)NC3=O)NC(=O)[C@H](CCCCN)NC(=O)[C@H](CC(=O)O)NC(=O)[C@H](CC(N)=O)NC(=O)[C@H](CC(=O)O)NC(=O)[C@@H]2CCCN2C1=O [[Ala5;HCit28]GpTx-1(1-34)] (H-DCLGAMRKCIPDNDKCCRPNLVCSRTH[hCit]WCKYVF-NH2; disulfide 2-17, 9-23, 16-30) | 25 | > 10000
CC[C@H](C)[C@@H]1NC(=O)[C@@H]2CSSC[C@@H]3NC(=O)[C@H](C(C)C)NC(=O)[C@H](CC(C)C)NC(=O)[C@H](CC(N)=O)NC(=O)[C@@H]4CCCN4C(=O)[C@H](CCCNC(=N)N)NC(=O)[C@H](CSSC[C@H](NC(=O)[C@@H](N)CC(=O)O)C(=O)N[C@@H](CC(C)C)C(=O)NCC(=O)N(C)[C@@H](CC(C)C)C(=O)N[C@@H](CC(C)C)C(=O)N[C@@H](CCCNC(=N)N)C(=O)N[C@@H](CCCCN)C(=O)N2)NC(=O)[C@H](CSSC[C@@H](C(=O)N[C@@H](CCCCN)C(=O)N[C@@H](Cc2ccc(O)cc2)C(=O)N[C@H](C(=O)N[C@@H](Cc2ccccc2)C(N)=O)C(C)C)NC(=O)[C@H](Cc2c[nH]c4ccccc24)NC(=O)[C@H](CCCCN)NC(=O)[C@H](Cc2c[nH]cn2)NC(=O)[C@H]([C@@H](C)O)NC(=O)[C@H](CCCNC(=N)N)NC(=O)[C@H](CO)NC3=O)NC(=O)[C@H](CCCCN)NC(=O)[C@H](CC(=O)O)NC(=O)[C@H](CC(N)=O)NC(=O)[C@H](CC(=O)O)NC(=O)[C@@H]2CCCN2C1=O [[NMeLeu5;Leu6]GpTx-1(1-34)] | 12 | > 10000
CC[C@H](C)[C@@H]1NC(=O)[C@@H]2CSSC[C@@H]3NC(=O)[C@H](C(C)C)NC(=O)[C@H](CC(C)C)NC(=O)[C@H](CC(N)=O)NC(=O)[C@@H]4CCCN4C(=O)[C@H](CCCNC(=N)N)NC(=O)[C@H](CSSC[C@H](NC(=O)[C@@H](N)CC(=O)O)C(=O)N[C@@H](CC(C)C)C(=O)NCC(=O)N[C@@H](C)C(=O)N[C@@H](Cc4cn(C)c5ccccc45)C(=O)N[C@@H](CCCNC(=N)N)C(=O)N[C@@H](CCCCN)C(=O)N2)NC(=O)[C@H](CSSC[C@@H](C(=O)N[C@@H](CCCCN)C(=O)N[C@@H](Cc2ccc(O)cc2)C(=O)N[C@H](C(=O)N[C@@H](Cc2ccccc2)C(N)=O)C(C)C)NC(=O)[C@H](Cc2c[nH]c4ccccc24)NC(=O)[C@H](CCCCN)NC(=O)[C@H](Cc2c[nH]cn2)NC(=O)[C@H]([C@@H](C)O)NC(=O)[C@H](CCCNC(=N)N)NC(=O)[C@H](CO)NC3=O)NC(=O)[C@H](CCCCN)NC(=O)[C@H](CC(=O)O)NC(=O)[C@H](CC(N)=O)NC(=O)[C@H](CC(=O)O)NC(=O)[C@@H]2CCCN2C1=O [[Ala5;1′NMeW6]GpTx-1(1-34)] | 51 | > 10000
CC[C@H](C)[C@@H]1NC(=O)[C@@H]2CSSC[C@@H]3NC(=O)[C@H](C(C)C)NC(=O)[C@H](CC(C)C)NC(=O)[C@H](CC(N)=O)NC(=O)[C@@H]4CCCN4C(=O)[C@H](CCCNC(=N)N)NC(=O)[C@H](CSSC[C@H](NC(=O)[C@@H](N)CC(=O)O)C(=O)N[C@@H](CC(C)C)C(=O)NCC(=O)N[C@@H](Cc4cccnc4)C(=O)N[C@@H](Cc4ccccc4)C(=O)N[C@@H](CCCNC(=N)N)C(=O)N[C@@H](CCCCN)C(=O)N2)NC(=O)[C@H](CSSC[C@@H](C(=O)N[C@@H](CCCCN)C(=O)N[C@@H](Cc2ccc(O)cc2)C(=O)N[C@H](C(=O)N[C@@H](Cc2ccccc2)C(N)=O)C(C)C)NC(=O)[C@H](Cc2c[nH]c4ccccc24)NC(=O)[C@H](CCCCN)NC(=O)[C@H](Cc2c[nH]cn2)NC(=O)[C@H]([C@@H](C)O)NC(=O)[C@H](CCCNC(=N)N)NC(=O)[C@H](CO)NC3=O)NC(=O)[C@H](CCCCN)NC(=O)[C@H](CC(=O)O)NC(=O)[C@H](CC(N)=O)NC(=O)[C@H](CC(=O)O)NC(=O)[C@@H]2CCCN2C1=O [[3Pal5;Phe6]GpTx-1(1-34)] (H-DCLG[3Pal]FRKCIPDNDKCCRPNLVCSRTHKWCKYVF-NH2; disulfide 2-17, 9-23, 16-30) | 63 | > 10000
CC[C@H](C)[C@@H]1NC(=O)[C@@H]2CSSC[C@@H]3NC(=O)[C@H](C(C)C)NC(=O)[C@H](CC(C)C)NC(=O)[C@H](CC(N)=O)NC(=O)[C@@H]4CCCN4C(=O)[C@H](CCCNC(=N)N)NC(=O)[C@H](CSSC[C@H](NC(=O)[C@@H](N)CC(=O)O)C(=O)N[C@@H](CC(C)C)C(=O)NCC(=O)N[C@@H](C)C(=O)N[C@@H](Cc4ccccc4)C(=O)N[C@@H](CCCNC(=N)N)C(=O)N[C@@H](CCCCN)C(=O)N2)NC(=O)[C@H](CSSC[C@@H](C(=O)N[C@@H](CCCCN)C(=O)N[C@@H](Cc2ccc(O)cc2)C(=O)N[C@H](C(=O)N[C@@H](Cc2ccccc2)C(N)=O)C(C)C)NC(=O)[C@H](Cc2c[nH]c4ccccc24)NC(=O)[C@H](CCCNC(=N)N)NC(=O)[C@H](Cc2c[nH]cn2)NC(=O)[C@H](CC(C)C)NC(=O)[C@H](CCCNC(=N)N)NC(=O)[C@H](CO)NC3=O)NC(=O)[C@H](CCCCN)NC(=O)[C@H](CC(=O)O)NC(=O)[C@H](CCCCNC(=O)CN2CCN(CC(=O)O)CCN(CC(=O)O)CCN(CC(=O)O)CC2)NC(=O)[C@H](CC(=O)O)NC(=O)[C@@H]2CCCN2C1=O (H-DCLGAFRKCIPDK(DOTA)DKCCRPNLVCSRLHRWCKYVF-NH2; disulfide 2-17, 9-23, 16-30) | 27.5 | > 10000
CC[C@H](C)[C@@H]1NC(=O)[C@@H]2CSSC[C@@H]3NC(=O)[C@H](C(C)C)NC(=O)[C@H](CC(C)C)NC(=O)[C@H](CC(N)=O)NC(=O)[C@@H]4CCCN4C(=O)[C@H](CCCNC(=N)N)NC(=O)[C@H](CSSC[C@H](NC(=O)[C@@H](N)CC(=O)O)C(=O)N[C@@H](CC(C)C)C(=O)NCC(=O)N[C@@H](Cc4ccccc4)C(=O)N[C@@H](CCSC)C(=O)N[C@@H](CCCNC(=N)N)C(=O)N[C@@H](CCCCN)C(=O)N2)NC(=O)[C@H](CSSC[C@@H](C(=O)N[C@@H](CCCCN)C(=O)N[C@@H](Cc2ccc(O)cc2)C(=O)N[C@H](C(=O)N[C@@H](Cc2ccccc2)C(N)=O)C(C)C)NC(=O)[C@H](Cc2c[nH]c4ccccc24)NC(=O)[C@H](CCCCN)NC(=O)[C@H](Cc2c[nH]cn2)NC(=O)[C@H]([C@@H](C)O)NC(=O)[C@H](CCCNC(=N)N)NC(=O)[C@H](CO)NC3=O)NC(=O)[C@H](CCC(=O)O)NC(=O)[C@H](CC(=O)O)NC(=O)[C@H](CC(N)=O)NC(=O)[C@H](CC(=O)O)NC(=O)[C@@H]2CCCN2C1=O [[Glu15]GpTx-1(1-34)] (H-DCLGFMRKCIPDNDECCRPNLVCSRTHKWCKYVF-NH2; disulfide 2-17, 9-23, 16-30) | 20 | 10000
CC[C@H](C)[C@@H]1NC(=O)[C@@H]2CSSC[C@@H]3NC(=O)[C@H](C(C)C)NC(=O)[C@H](CC(C)C)NC(=O)[C@H](CC(N)=O)NC(=O)[C@@H]4CCCN4C(=O)[C@H](CCCNC(=N)N)NC(=O)[C@H](CSSC[C@H](NC(=O)[C@@H](N)CC(=O)O)C(=O)N[C@@H](CC(C)C)C(=O)NCC(=O)N[C@@H](C)C(=O)N[C@@H](CCSC)C(=O)N[C@@H](CCCNC(=N)N)C(=O)N[C@@H](CCCCN)C(=O)N2)NC(=O)[C@H](CSSC[C@@H](C(=O)N[C@@H](CCCCN)C(=O)N[C@@H](Cc2ccc(O)cc2)C(=O)N[C@H](C(=O)N[C@@H](Cc2ccccc2)C(N)=O)C(C)C)NC(=O)[C@H](Cc2c[nH]c4ccccc24)NC(=O)[C@H](CCC(N)=O)NC(=O)[C@H](Cc2c[nH]cn2)NC(=O)[C@H]([C@@H](C)O)NC(=O)[C@H](CCCNC(=N)N)NC(=O)[C@H](CO)NC3=O)NC(=O)[C@H](CCCCN)NC(=O)[C@H](CC(=O)O)NC(=O)[C@H](CC(N)=O)NC(=O)[C@H](CC(=O)O)NC(=O)[C@@H]2CCCN2C1=O [[Ala5;Gln28]GpTx-1(1-34)] (H-DCLGAMRKCIPDNDKCCRPNLVCSRTHQWCKYVF-NH2; disulfide 2-17, 9-23, 16-30) | 37 | > 10000
